{"source": "patent US9657024B2", "about": "“Substituted triazolo-pyrimidine compounds for modulating cell proliferation, differentiation and survival” (STATegics, Inc., priority 2012, dated 2017)", "key": {"[1]": {"system": "primary dopaminergic neurons", "experiment": "Protection of primary dopaminergic neurons from 6-OHDA (THir neurons)", "assay_type": "cell-based, rat", "settings": "6.25 uM 6-OHDA 40 minute", "procedure": "Dissociated embryonic D14 rat ventral mesencephalic cells were used.\nDopaminergic neurons play a key role in the pathogenesis of Parkinson's disease and compounds enhancing survival of these cells have significant therapeutic potential. Dissociated embryonic D14 rat ventral mesencephalic cells were used to test the potential of EPO mimetic compounds to protect primary dopaminergic neurons. […] The cells were plated in 48-well poly-D-lysine coated plates using a microisland technique. The microislands were seeded into dry plates in 10 uL aliquots of 3000 cells/uL and incubated at 37° C. for 1 h to allow for adhesion. […] On day 3, the medium was replaced with 6.25 uM 6-hydroxydopamine (6-OHDA, Sigma) for a 40 minute incubation. The toxin was then removed and the cells were cultured for an additional 2 days. On day 5, the cells were fixed, permeabilized and stained for tyrosine hydroxylase-immunoreactive (THir) neurons."}, "PC12 cells": {"system": "PC12 cells", "experiment": "PC12 cell survival under serum deprivation (CellTiter-Glo)", "assay_type": "cell-based, rat", "settings": "72 hours; for minimal effective concentration: Rattus norvegicus, PC-12, NS = RLU increased <25% at 5 uM, read-out: PC12 cell proliferation (CellTiter-Glo ®) Concentration at which RLU increased >25% compared to medium control", "procedure": "Each culture condition was performed in quadruplicate in each experiment and the mean values were calculated. The results represent mean±SEM of relative light unit values when compared to the mean values obtained in the presence of the medium alone. A total of 13 experiments were performed and the statistical significance was analyzed using GraphPad Prism software using ANOVA, followed by paired t-test. The symbol * indicates P-values<0.01.\nPC12 cells were cultured in DMEM supplemented with 10% fetal calf serum and 5% horse serum. […] Cell viability was analyzed by CellTiter-Glo® reagent (Promega).\nPC12 cells were cultured in DMEM supplemented with 10% fetal calf serum and 5% horse serum. […] Cell survival of the serum-starved cells was analyzed by CellTiter-Glo® reagent luminescence reading.\nFIG. 2 illustrates neuroprotective effects of Compounds 1-5 when tested in PC12 cell protection assays. PC12 cells were subjected to serum deprivation as described under FIG. 1.\nPC12 cells were cultured in DMEM supplemented with 10% fetal calf serum and 5% horse serum. […] Cell survival of the serum-starved cells was analyzed by CellTiter-Glo® reagent luminescence reading (relative light units, “RLU”). […] “NS” indicates RLU increased <25% when compounds were tested at 5 uM."}, "[2]": {"system": "human CD34+ hematopoietic stem cells", "experiment": "Proliferation of human CD34+ cells (ATP, CellTiterGlo)", "assay_type": "cell-based", "settings": "eight days in culture", "procedure": "(§1) Compound 10 was tested at different concentrations for its ability to induce proliferation and differentiation of human CD34+ hematopoietic stem cells. Human CD34+ cells were purified by (FIG. 6A) immunomagnetic beads (>90% purity, purchased from Stem Cell Technologies) or (FIG. 6B) cell sorting (at Blood Systems Research Institute) and the cells were cultured in the presence of compounds for eight (FIG. 6A) or eleven (FIG. 6B) days. (FIG. 6A) The level of cell growth and survival was measured based on ATP levels (CellTiterGlo reagent), or (FIG. 6B) the expression level of CD235a was analyzed by flow cytometry as a marker for cell maturation. Cell survival was analyzed using the CellTiterGlo reagent to measure ATP levels as a marker of metabolically active cells that have not undergone apoptosis, and expression of CD235a as a marker of erythroid cell differentiation and as a specific marker for EPO-like erythropoietic activity."}, "[3]": {"system": "human CD34+ hematopoietic stem cells", "experiment": "Erythroid differentiation of human CD34+ cells (CD235a, flow cytometry)", "assay_type": "cell-based", "settings": "eleven days in culture", "procedure": "as §1"}, "TF-1 cells": {"system": "TF-1 cells", "experiment": "TF-1 cell proliferation", "assay_type": "cell-based, human", "settings": "at concentrations that provided significant neuroprotective effects"}, "frataxin [4]": {"system": "frataxin", "experiment": "Frataxin protein levels in primary human fetal neurons (ELISA)", "assay_type": "cell-based", "settings": "28 days in culture, 24 h, relative to total protein", "procedure": "The effects of the compounds on frataxin protein levels in cells were analyzed. […] Embryonic mouse cell line P19 was differentiated into neuronal cells in the presence of retinoic acid and frataxin levels were measured (FIG. 4A). Frataxin levels were measured after 24 h by multi-species frataxin-ELISA (MitoSciences) and compared to total protein levels. The data represent mean+SEM. Primary human fetal neurons (28 days in culture) were also incubated for 24 h in the presence of the compounds, and human frataxin levels were measured by ELISA (MitoSciences) and compared to total protein levels (FIG. 4B). The data represent mean+SEM of triplicate measurements. Compounds were also tested for their effects on frataxin levels in cells derived from patients with FRDA. Cultures of patient peripheral blood mononuclear cells (PBMCs) were also used to test the EPO mimetic compounds for frataxin enhancement in frataxin-deficient cells. Compound 1 and Compounds 5-6 enhanced frataxin levels in these patient cells at concentration 1 uM or lower."}, "EPO receptor [5]": {"biological_target": "T1, EPO receptor (Homo sapiens, UniProt P19235)", "T1 sequence (P19235 25-508)": "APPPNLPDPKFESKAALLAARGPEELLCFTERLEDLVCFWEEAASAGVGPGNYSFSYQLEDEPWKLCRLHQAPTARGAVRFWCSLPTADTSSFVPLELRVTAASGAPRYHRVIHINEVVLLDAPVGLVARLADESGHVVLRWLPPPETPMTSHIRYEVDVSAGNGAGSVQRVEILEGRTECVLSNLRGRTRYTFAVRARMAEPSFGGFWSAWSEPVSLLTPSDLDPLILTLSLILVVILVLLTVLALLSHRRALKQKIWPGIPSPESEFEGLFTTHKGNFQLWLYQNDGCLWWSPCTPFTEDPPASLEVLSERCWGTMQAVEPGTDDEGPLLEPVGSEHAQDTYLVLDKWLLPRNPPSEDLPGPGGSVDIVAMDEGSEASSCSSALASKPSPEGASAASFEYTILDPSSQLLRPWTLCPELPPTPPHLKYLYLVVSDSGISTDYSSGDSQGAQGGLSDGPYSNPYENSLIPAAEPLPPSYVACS", "experiment": "EPO receptor phosphorylation in primary human fetal neural cells (phospho-EPOR ELISA)", "assay_type": "cell-based", "parameters": "endogenous in cells; host or cells: primary human fetal neural cells from micro-dissected fetal brain tissue (Advanced Bioscience Resources, Inc.)", "settings": "10 min incubation; for level of EPO receptor activation compared with recombinant human EPO: EPO 10 IU/ml", "procedure": "Primary micro-dissected fetal brain tissue was obtained from a commercial source (Advanced Bioscience Resources, Inc., Alameda, Calif.). Cultured primary human fetal neural cells (3 h, 1 day, 17 days, or 26 days in culture) were incubated with Compound 5, Compound 6, or controls for 10 min (FIG. 5A). Phospho-EPOR was detected by ELISA (R&D Systems). […] Human erythropoietic cell line TF-1 was cultured for 10 min in the presence of Compound 5, Compound 6, or the controls, and phospho-EPOR was detected by ELISA (R&D Systems). The data represent mean+SEM of triplicate cultures. […] The receptor activation results were consistent with functional cell based assays using primary human CD34+ bone marrow progenitor cells and erythroleukemia cell line TF-1."}, "rats": {"system": "rats", "experiment": "Kidney and CNS protection in rats with DMA + Cremophor EL toxicity", "assay_type": "in vivo, rat", "settings": "DMA + CrEL 2.5 mL/kg each, IP", "procedure": "High-dose N,N-dimethylacetamide (DMA)+ Cremophor EL (CrEL) (2.5 mL/kg each, IP) was used to induce acute CNS and organ toxicity, and the potential of Compound 5 to protect the rats was studied."}, "EPO receptor [6]": {"biological_target": "T1, EPO receptor", "experiment": "EPO receptor phosphorylation in TF-1 cells (phospho-EPOR ELISA)", "assay_type": "cell-based", "parameters": "endogenous in cells; host or cells: TF-1 human erythroleukemia cell line", "settings": "TF-1, 10 min", "procedure": "Primary micro-dissected fetal brain tissue was obtained from a commercial source (Advanced Bioscience Resources, Inc., Alameda, Calif.). Cultured primary human fetal neural cells (3 h, 1 day, 17 days, or 26 days in culture) were incubated with Compound 5, Compound 6, or controls for 10 min (FIG. 5A). Phospho-EPOR was detected by ELISA (R&D Systems). […] Human erythropoietic cell line TF-1 was cultured for 10 min in the presence of Compound 5, Compound 6, or the controls, and phospho-EPOR was detected by ELISA (R&D Systems). The data represent mean+SEM of triplicate cultures."}, "frataxin [7]": {"system": "frataxin", "settings": "8 FRDA patients, open label pilot trial; cited from earlier work"}, "[8]": {"settings": "following intravenous administration; cited from earlier work"}, "frataxin [9]": {"system": "frataxin", "settings": "patients with chronic kidney disease, rhEPO infusion for anemia; cited from earlier work"}}, "data": [{"compound": "Cc1cc(C)n2nc(SCCOc3ccc(Cl)cc3)nc2n1", "note": "[Example 1, 2-{[2-(4-chlorophenoxy)ethyl]sulfanyl}-5,7-dimethyl-[1,2,4]triazolo[1,5-a]pyrimidine]", "values": [{"measurement": "protection of dopaminergic neurons from 6-OHDA toxicity", "setting": "[1]; 1 uM", "result": "significantly protected"}, {"measurement": "effect on PC12 cell viability compared with rhEPO", "setting": "PC12 cells; compound at 1 uM, serum-free", "result": "at least a comparable effect on cell viability as rhEPO"}, {"measurement": "level of PC12 cell protection compared with rhEPO at 10 U/ml", "setting": "PC12 cells; compound at 5 uM, serum-free", "result": "even higher level of protection than rhEPO"}, {"measurement": "concentration at which significant protective effect on PC12 cells was observed", "setting": "PC12 cells; serum-free conditions", "result": 1, "unit": "µM"}]}, {"compound": "Cc1cc(C)n2nc(SCCOc3ccc(F)c(Cl)c3)nc2n1", "note": "[Example 6, 2-{[2-(3-chloro-4-fluorophenoxy)ethyl]sulfanyl}-5,7-dimethyl-[1,2,4]triazolo[1,5-a]pyrimidine]", "values": [{"measurement": "minimal effective concentration", "setting": "PC12 cells; serum-free conditions", "result": "< 5", "unit": "µM"}]}, {"compound": "COc1ccc(NC(=O)CSc2nc3nc(C)cc(C)n3n2)cc1", "note": "[Example 10, 2-({5,7-dimethyl-[1,2,4]triazolo[1,5-a]pyrimidin-2-yl}sulfanyl)-N-(4-methoxyphenyl)acetamide]", "values": [{"measurement": "CD34+ progenitor cell proliferation (ATP levels)", "setting": "[2]", "result": "dose-dependent induction of CD34+ progenitor cell proliferation"}, {"measurement": "erythroid differentiation (CD235a expression)", "setting": "[3]", "result": "differentiation into erythroid cells expressing CD235a"}]}, {"compound": "Cc1cc(C)n2nc(OCCOc3ccc(Cl)cc3)nc2n1", "note": "[Example 11, 2-[2-(4-chlorophenoxy)ethoxy]-5,7-dimethyl-[1,2,4]triazolo[1,5-a]pyrimidine]", "values": [{"measurement": "proliferation of TF-1 cells", "setting": "TF-1 cells", "result": "did not induce proliferation of TF-1 cells"}, {"measurement": "frataxin protein levels", "setting": "frataxin [4]", "result": "increased frataxin protein levels"}, {"measurement": "EPO receptor phosphorylation", "setting": "EPO receptor [5]", "result": "increased EPO receptor phosphorylation in a dose-dependent manner"}, {"measurement": "level of EPO receptor activation compared with recombinant human EPO", "setting": "EPO receptor [5]", "result": "comparable to that induced by recombinant human EPO"}, {"measurement": "kidney-protective effect (hypoproteinemia in serum)", "setting": "rats", "result": "reduced hypoproteinemia in serum"}, {"measurement": "response to formalin injection", "setting": "rats", "result": "normalized the response of the rats to formalin injection"}, {"measurement": "EPO receptor activation (phospho-EPOR)", "setting": "EPO receptor [6]", "result": "did not activate EPO receptor"}]}, {"compound": "Cc1cc(C)n2nc(OCCN(CCO)c3ccccc3)nc2n1", "note": "[Example 13, 2-{[2-({5,7-Dimethyl-[1,2,4]triazolo[1,5-a]pyrimidin-2-yl}oxy)ethyl](phenyl)amino}ethan-1-ol]", "values": [{"measurement": "proliferation of TF-1 cells", "setting": "TF-1 cells", "result": "did not induce proliferation of TF-1 cells"}, {"measurement": "frataxin protein levels", "setting": "frataxin [4]", "result": "increased frataxin protein levels"}, {"measurement": "EPO receptor phosphorylation", "setting": "EPO receptor [5]", "result": "increased EPO receptor phosphorylation in a dose-dependent manner"}, {"measurement": "level of EPO receptor activation compared with recombinant human EPO", "setting": "EPO receptor [5]", "result": "comparable to that induced by recombinant human EPO"}, {"measurement": "EPO receptor activation (phospho-EPOR)", "setting": "EPO receptor [6]", "result": "did not activate EPO receptor"}]}, {"compound": "CCc1cc(CC)n2nc(CCCOc3ccc(Cl)cc3)nc2n1", "note": "[Example 28, 2-[3-(4-chlorophenoxy)propyl]-5,7-diethyl-[1,2,4]triazolo[1,5-a]pyrimidine]", "values": [{"measurement": "minimal effective concentration", "setting": "PC12 cells; serum-free conditions", "result": "< 5", "unit": "µM"}]}, {"compound": "rhEPO: recombinant human (rh)EPO, erythropoietin; positive control", "values": [{"measurement": "overall increase in frataxin in lymphocytes", "setting": "frataxin [7]", "result": 24, "unit": "%"}, {"measurement": "concentration in human cerebrospinal fluid lower than in circulation", "setting": "[8]", "result": "more than 1000 fold"}, {"measurement": "protection of dopaminergic neurons from 6-OHDA toxicity", "setting": "[1]; 10 IU/ml", "result": "significantly protected"}, {"measurement": "increase in frataxin levels in peripheral blood mononuclear cells", "setting": "frataxin [9]", "result": "2-3 fold"}]}]}
